Source: patent US20230416329A1, “A PEPTIDE WITH DISULFIDE BONDS AND INHIBITORY ACTIVITY AGAINST SERINE PROTEASES, DERIVED HYBRID PEPTIDES THEREOF, AND USES THEREOF” (INSTITUTE OF MATERIA MEDICA , CHINESE ACADEMY OF MEDICAL …, priority 2020, published 2023)
Where two headings read alike, the source gives them in different places. Bridge positions count the residues as written; N and C are the ends. Square brackets hold non-standard residues; d marks the D form. Peptide text beside a SMILES is read from it. Hyp = O=C(O)[C@@H]1C[C@@H](O)CN1

Biological target: T1, bovine trypsin (Bos taurus, UniProt P00760)
T1 sequence (P00760 24-246): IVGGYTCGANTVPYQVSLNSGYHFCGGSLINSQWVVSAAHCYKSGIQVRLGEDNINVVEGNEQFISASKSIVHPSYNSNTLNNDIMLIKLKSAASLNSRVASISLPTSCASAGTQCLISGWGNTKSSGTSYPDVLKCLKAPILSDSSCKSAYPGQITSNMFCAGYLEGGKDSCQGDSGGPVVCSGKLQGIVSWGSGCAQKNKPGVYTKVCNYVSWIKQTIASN
Assay: Trypsin inhibitory activity of peptides (BApNA hydrolysis, OD405; IC50, Ki, residual activity)
Type: biochemical
Settings: for IC50: trypsin 50 nM, BApNA 1.22 mM, read-out: IC50
Procedure: The substrates N-succinyl-Ala-Ala-Pro-Phe-p-nitroaniline (AAPFpNA), Nα—Benzoyl-L-arginine-4-nitroaniline hydrochloride (BApNA) and N-succinyl-[…] (AAApNA) are used in competitive binding reaction to determine the inhibitory activities against α-chymotrypsin, bovine trypsin, and porcine pancreatic elastase, respectively. Experiments for α-chymotrypsin and bovine trypsin inhibition were measured in 20 mM CaCl2, 50 mM Tris-HCl buffer (pH 7.8), and that for porcine elastase inhibition was measured in 50 mM Tris-HCl buffer (pH 8.0). The concentration of the peptide was measured using optical density (OD) at 280 nm. The Michaelis constant (Km) of the enzyme hydrolysis substrate is calculated from the initial rate of substrate hydrolysis at 405 nm. The absorbance value of the substrate was measured at 405 nm after complete hydrolysis. All data were processed using nonlinear regression.
• (1) Added 200 μL of reaction buffer (20 mM CaCl2 and 50 mM Tris-HCl, pH 7.8) into the 96-well plate, and preheated at 37° C. for 15 min. Then added 5 μL of different concentrations of substrates (p-Nitroanilide, pNA, 0.5% in DMSO), and mixed by centrifugation at 500 rpm for 1 min. […] The experiment was performed in triplicate. The standard curve was obtained by plotting the OD405 nm value with pNA concentration. • (2) Added 190 μL of reaction buffer (20 mM CaCl2 and 50 mM Tris-HCl, pH 7.8) and 10 μL of 1 μM trypsin into the 96-well plate, and preheated at 37° C. for 15 min. Then added 5 μL of different concentrations of substrates (BApNA, 0.5% in DMSO) and mixed by centrifugation at 500 rpm for 1 min. […] The experiment was performed in triplicate. The corresponding curve was obtained by plotting the OD405 nm value with time. Divided the slope of the curve by the slope of the standard curve and the enzyme concentration to obtain the initial velocity V0 (mM/(min*mM protein). Plotted the initial velocity V0 with the concentration of substrate BApNA using Prism software, and the Michaelis constant Km value of trypsin hydrolyzing BApNA was obtained.
• (1) Added a total 190 μL of reaction buffer (20 mM CaCl2 and 50 mM Tris-HCl, pH 7.8) along with different concentrations of anti-trypsin peptides (BTs) into the pre-cooled 96-well plate, followed by preheating at 37° C., and spined down at 500 rpm for 5 min. Next added 10 μL of 1 μM trypsin, incubated at 37° C., and then spined down at 500 rpm for 10 min. Finally, added 5 μL of 50 mM BApNA, and mixed by centrifugation at 500 rpm for 1 min. The plate was incubated at 37° C. for 260 min, and the absorbance value at 405 nm was measured. The experiment was performed in triplicate. The blank control only contained the reaction buffer and the substrate as the minimum absorption value (Min OD405 nm). The negative control only contained the reaction buffer, the enzyme and the substrate as the maximum absorption value (Max OD405 nm). • (2) In the reaction system of 205 μL, the final concentrations of trypsin and BApNA were 50 nM and 1.22 mM, respectively. • (3) Data statistics
Residual activity of the enzyme (%)=(1−(Max OD405 nm−Sample OD405 nm)/(Max OD405 nm−Min OD405 nm))*100
Plotted the residual activity of the enzyme with […] to obtain the half inhibitory concentration (IC50) of BTs scaffold against trypsin. Then, substituted it into the formula Ki=IC50/(1+S/Km) (S, IC50 and Km were substrate concentration, half inhibitory concentration and Michaelis constant, respectively) to obtain the inhibition constant Ki of BTs scaffold against trypsin.

[1] = Ki=IC50/(1+S/Km), Km 0.33 mM, read-out: Ki
[2] = read-out: inhibition constant (Ki) towards trypsin

| SMILES | inhibitory activity against trypsin (in words) | Ki [1] | IC50 | Residual trypsin activity (peptide 0.098 μM) | Residual trypsin activity (peptide 0.488 μM) | Residual trypsin activity (peptide 0.98 μM) | Residual trypsin activity (peptide 9.76 μM) | further results |
| --- | --- | --- | --- | --- | --- | --- | --- | --- |
| CC[C@H](C)[C@@H]1NC(=O)[C@@H]2CCCN2C(=O)[C@@H]2CCCN2C(=O)[C@H]([C@@H](C)CC)NC(=O)[C@H](CO)NC(=O)[C@H](CCCCN)NC(=O)[C@H]([C@@H](C)O)NC(=O)[C@H](C)NC(=O)[C@H](CCCNC(=N)N)NC(=O)CNC(=O)[C@@H](N)CSSC[C@@H](C(=O)O)NC(=O)CNC(=O)[C@H](Cc2ccccc2)NC(=O)[C@H](C)NC1=O [BT32] (H-CGRATKSIPPIAFGC-OH; disulfide 1-15; N-terminus and C-terminus assumed) | still maintained good inhibitory activity against trypsin | – | – | – | – | – | – | – |
| CC[C@H](C)[C@@H]1NC(=O)[C@H](CO)NC(=O)[C@H](CCCCN)NC(=O)[C@H]([C@@H](C)O)NC(=O)[C@@H](NC(=O)[C@@H](N)CCCNC(=N)N)CSSC[C@@H](C(=O)N[C@@H](Cc2c[nH]cn2)C(=O)O)NC(=O)[C@H](CCC(N)=O)NC(=O)[C@@H]2CCCN2C(=O)[C@@H]2CCCN2C1=O [BT63] (H-RCTKSIPPQCH-OH; disulfide 2-10; N-terminus and C-terminus assumed) | – | 0.02 µM | 0.09 µM | – | – | – | – | – |
| CC[C@H](C)[C@@H]1NC(=O)[C@H](CCCCN)NC(=O)[C@@H]2CCCN2C(=O)[C@@H](NC(=O)[C@H](CCCNC(=N)N)NC(=O)CN)CSSC[C@@H](C(=O)N[C@@H](Cc2ccccc2)C(=O)O)NC(=O)[C@H](CCCCN)NC(=O)[C@H](CCCCN)NC(=O)[C@H](CC(C)C)NC1=O [BT41] (H-GRCPKILKKCF-OH; disulfide 3-10) | – | – | > 50 µM | – | – | – | – | – |
| CC[C@H](C)[C@@H]1NC(=O)[C@@H]2CCCN2C(=O)[C@@H]2C[C@@H](O)CN2C(=O)[C@H]([C@@H](C)CC)NC(=O)[C@H](CO)NC(=O)[C@H](CCCCN)NC(=O)[C@H]([C@@H](C)O)NC(=O)[C@H](C)NC(=O)[C@H](CCCNC(=N)N)NC(=O)[C@H](C)NC(=O)[C@@H](N)CSSC[C@@H](C(=O)N[C@@H](Cc2ccccc2)C(=O)O)NC1=O [BT69] (H-CARATKSI[Hyp]PICF-OH; disulfide 1-12; C-terminus assumed) | excellent trypsin inhibitory activities | 0.01 µM | 0.06 µM | – | – | – | – | – |
| CC[C@H](C)[C@@H]1NC(=O)[C@@H]2CCCN2C(=O)[C@@H]2CCCN2C(=O)[C@H]([C@@H](C)CC)NC(=O)[C@H](CO)NC(=O)[C@H](CCCCN)NC(=O)[C@H]([C@@H](C)O)NC(=O)[C@H](C)NC(=O)[C@H](CCCCN)NC(=O)[C@H](C)NC(=O)CNC(=O)[C@@H](N)CSSC[C@@H](C(=O)N[C@@H](Cc2ccccc2)C(=O)N2CCC[C@H]2C(=O)N[C@@H](CC(=O)O)C(=O)O)NC1=O [BT3] (H-CGAKATKSIPPICFPD-OH; disulfide 1-13; N-terminus and C-terminus assumed) | – | – | – | 95.7 ± 3.6% | 67.2 ± 4.8% | 23.3 ± 5.3% | 0.9 ± 0.4% | Residual trypsin activity (peptide 0.1463 μM): 86.8 ± 2.5%; Residual trypsin activity (peptide 0.293 μM): 85.6 ± 1.3%; Residual trypsin activity (peptide 4.88 μM): 1.8 ± 0.9%; Residual trypsin activity (peptide 19.51 μM): 0.1 ± 0.0%; Ki [2]: 0.14 µM |
| CC[C@H](C)[C@@H]1NC(=O)[C@@H]2CCCN2C(=O)[C@@H]2CCCN2C(=O)[C@H]([C@@H](C)CC)NC(=O)[C@H](CO)NC(=O)[C@H](CCCNC(=N)N)NC(=O)[C@H]([C@@H](C)O)NC(=O)[C@H](C)NC(=O)[C@H](CCCNC(=N)N)NC(=O)CNC(=O)[C@@H](N)CSSC[C@@H](C(=O)N[C@@H](Cc2ccccc2)C(=O)O)NC1=O [BT17] (H-CGRATRSIPPICF-OH; disulfide 1-12; C-terminus assumed) | excellent trypsin inhibitory activities | 0.12 µM | – | 93.6 ± 4.5% | 61.9 ± 3.0% | 1.5 ± 0.3% | 0.1 ± 0.0% | Residual trypsin activity (peptide 0.00098 μM): 97.9 ± 0.8%; Residual trypsin activity (peptide 0.0098 μM): 97.5 ± 0.7%; Residual trypsin activity (peptide 0.7317 μM): 30.0 ± 5.3%; Residual trypsin activity (peptide 97.56 μM): 0.1 ± 0.0%; decrease in inhibitory activity compared to BT9 (trypsin): ~12 fold |
| CC[C@H](C)[C@@H]1NC(=O)[C@@H]2CCCN2C(=O)[C@@H]2CCCN2C(=O)[C@H]([C@@H](C)CC)NC(=O)[C@H](CO)NC(=O)[C@H](CCCCN)NC(=O)[C@H]([C@@H](C)O)NC(=O)CNC(=O)[C@H](CCCCN)NC(=O)[C@H](C)NC(=O)CNC(=O)[C@@H](N)CSSC[C@@H](C(=O)N[C@@H](Cc2ccccc2)C(=O)N2CCC[C@H]2C(=O)N[C@@H](CC(=O)O)C(=O)O)NC1=O [BT2] (H-CGAKGTKSIPPICFPD-OH; disulfide 1-13; N-terminus and C-terminus assumed) | – | – | – | – | 94.6 ± 1.7% | 83.6 ± 5.2% | 4.2 ± 0.4% | Residual trypsin activity (peptide 1.95 μM): 72.9 ± 6.1%; Residual trypsin activity (peptide 2.93 μM): 51.2 ± 9.0%; Residual trypsin activity (peptide 4.88 μM): 12.9 ± 1.3%; Residual trypsin activity (peptide 19.51 μM): 3.7 ± 0.5%; Residual trypsin activity (peptide 39.02 μM): 0.5 ± 0.1%; Ki [2]: 0.65 µM |
| CC[C@H](C)[C@@H]1NC(=O)[C@@H]2CCCN2C(=O)[C@@H]2CCCN2C(=O)[C@H]([C@@H](C)CC)NC(=O)[C@H](CO)NC(=O)[C@H](CCCCN)NC(=O)[C@H]([C@@H](C)O)NC(=O)[C@H](CCC(N)=O)NC(=O)[C@H](CCCNC(=N)N)NC(=O)CNC(=O)[C@@H](N)CSSC[C@@H](C(=O)N[C@@H](Cc2ccccc2)C(=O)O)NC1=O [BT54] (H-CGRQTKSIPPICF-OH; disulfide 1-12; C-terminus assumed) | good inhibitory activities against trypsin | 0.01 µM | 0.06 µM | 7.2 ± 2.4% | – | 0.1 ± 0.0% | −0.1 ± 0.0% | inhibitory activity against trypsin (in words) (listed as SEQ ID NO: 54): excellent trypsin inhibitory activities; Residual trypsin activity (peptide 0.000098 μM): 101.0 ± 3.9%; Residual trypsin activity (peptide 0.00098 μM): 99.2 ± 1.7%; Residual trypsin activity (peptide 0.0098 μM): 99.9 ± 4.1%; Residual trypsin activity (peptide 0.0488 μM): 65.8 ± 6.7%; Residual trypsin activity (peptide 0.0585 μM): 58.4 ± 4.3%; Residual trypsin activity (peptide 0.0780 μM): 24.3 ± 2.4% |
| CC[C@H](C)[C@@H]1NC(=O)[C@H](CCCCN)NC(=O)[C@@H]2CCCN2C(=O)[C@@H](NC(=O)[C@H](CCCNC(=N)N)NC(=O)CN)CSSC[C@@H](C(=O)N[C@@H](Cc2ccccc2)C(=O)O)NC(=O)[C@H](CCCNC(=N)N)NC(=O)[C@H](CCC(N)=O)NC(=O)[C@H](CC(C)C)NC1=O [BT43] (H-GRCPKILQRCF-OH; disulfide 3-10) | – | – | > 50 µM | – | – | – | – | – |
| CC[C@H](C)[C@@H]1NC(=O)[C@@H]2CCCN2C(=O)[C@@H]2CCCN2C(=O)[C@H]([C@@H](C)CC)NC(=O)[C@H](CO)NC(=O)[C@H](CCCCN)NC(=O)[C@H]([C@@H](C)O)NC(=O)[C@H](C)NC(=O)[C@H](CCCNC(=N)N)NC(=O)[C@H](CO)NC(=O)[C@@H](N)CSSC[C@@H](C(=O)N[C@@H](Cc2ccccc2)C(=O)O)NC1=O [BT75] (H-CSRATKSIPPICF-OH; disulfide 1-12; N-terminus and C-terminus assumed) | excellent trypsin inhibitory activities | 0.0085 µM | 0.04 µM | – | – | – | – | – |
